The results in this text go back to EP0350946A2 (priority 1988, dated 1990).

The test system of test [1] is Phytophthora infestans. The class given is in vivo, tomato (var: Ponte Rosa). Conditions: sprayed the day after inoculation, observed after 5 days, percent disease control.
In test [2] the test system is Plasmopara viticola. The test is described as follows: Curative effect on downy mildew of grapes. Conditions: sprayed the day after inoculation, observed after 8 days, percent disease control. The class given is in vivo, grapes (var: Bailey-A). The text has this: (§1) Typical test data indicating the excellent fungicidal activity of the amide compounds (I) are shown below. The assessment data are converted to percent disease control. 100 % means no infection; 0 % means that the plant are totally infected compared with the control plant.
A plastic pot was filled with sandy soil, and seeds of grapes (var: Bailey-A) were sowed therein, followed by cultivation in a greenhouse for 50 days. A spore suspension of Plasmopara viticola was inoculated by spreading over the seedlings at the 6 to 7 leaf-stage of the test plants, which were then allowed to stand at 20°C overnight under a humid condition. The test compound formulated in a wettable powder according to Formulation Example 1 and diluted with water to a prescribed concentration was thoroughly sprayed over the test plants, which were further grown for 8 days under illumination and observed.

The subject of test [3] is Pseudoperonospora cubensis. The test is described as follows: Curative effect on downy mildew of cucumber. The class given is in vivo, cucumber (var: Sagamihanjiro). Conditions: sprayed the day after inoculation, observed after 8 days, percent disease control.
From the text: as §1
A plastic pot was filled with sandy soil, and seeds of cucumber (var: Sagamihanjiro) were sowed therein, followed by cultivation in a greenhouse for 14 days. A spore suspension of Pseudoperonospora cubensis was inoculated by spreading over the seedlings of the test plants, which were then allowed to stand at 20°C overnight under a humid condition. The test compound formulated in a wettable powder according to Formulation Example 1 and diluted with water to a prescribed concentration was thoroughly sprayed over the test plants, which were further grown for 8 days under illumination and observed.

Read-outs that look alike come from different tables or passages of the source.

With `C#CCCOC(C#N)NC(=O)c1sc(C)nc1C` (centres unmarked) [Compound 4, 2-(butynyl-3-oxy)-2-(2,4-dimethylthiazole-5-carboxamino)acetonitrile], the “Curative effect Tomato” value in test [1] (100 ppm) amounted to 90%; in test [1] (200 ppm) it was 100%. Moreover, the “Curative effect Grape” value in test [2] (200 ppm) came out at 100%. Besides, in test [3] (200 ppm), the “Curative effect Cucumber” value was 100%.
Regarding `CCCOC(C#N)NC(=O)c1sc(C)nc1CC` (centres unmarked) [Compound 7, 2-n-propoxy-2-(4-ethyl-2-methylthiazole-5-carboxamino)acetonitrile], the “Curative effect Tomato” value in test [1] (100 ppm) and in test [1] (200 ppm) was 100% throughout. Moreover, the “Curative effect Grape” value in test [2] (100 ppm) was determined as 90%; in test [2] (200 ppm), 100%. The “Curative effect Cucumber” value was determined as 90% in test [3] (100 ppm) and 100% in test [3] (200 ppm).
Regarding `CCCc1nc(C)sc1C(=O)NC(C#N)OCC` (centres unmarked) [Compound 13, 2-ethoxy-2-(4-n-propyl-2-methylthiazole-5-carboxamino)acetonitrile], the “Curative effect Tomato” value in test [1] (100 ppm) was determined as 90%; in test [1] (200 ppm), 95%. For the same compound, the “Curative effect Grape” value in test [2] (200 ppm) amounted to 90%. In addition, the “Curative effect Cucumber” value in test [3] (100 ppm) is recorded as 90%; in test [3] (200 ppm), 95%.
For the compound `CCOC(C#N)NC(=O)c1sc(C)nc1C` (centres unmarked) [Compound 2, 2-ethoxy-2-(2,4-dimethylthiazole-5-carboxamino)acetonitrile], the “Curative effect Tomato” value in test [1] (100 ppm) was 95%; in test [1] (200 ppm), 100%. Further, the “Curative effect Grape” value in test [2] (100 ppm) and in test [2] (200 ppm) was 100% each time. Besides, the “Curative effect Cucumber” value in test [3] (100 ppm) was found to be 95%; in test [3] (200 ppm), 100%.
As for `C#CCCOC(C#N)NC(=O)c1sc(C)nc1CC` (centres unmarked) [Compound 10, 2-(butynyl-3-oxy)-2-(4-ethyl-2-methylthiazole-5-carboxamino)acetonitrile], the “Curative effect Tomato” value is recorded as 95% in test [1] (100 ppm) and 100% in test [1] (200 ppm). The “Curative effect Grape” value was 90% in test [2] (100 ppm) and 100% in test [2] (200 ppm). The “Curative effect Cucumber” value came out at 95% in test [3] (100 ppm) and 100% in test [3] (200 ppm).
Regarding `CCOC(C#N)NC(=O)c1sc(C)nc1CC` (centres unmarked) [Compound 6, 2-ethoxy-2-(4-ethyl-2-methylthiazole-5-carboxamino)acetonitrile], the “Curative effect Tomato” value in test [1] (100 ppm) and in test [1] (200 ppm) was 100% in each case. Besides, the “Curative effect Grape” value in test [2] (100 ppm) and in test [2] (200 ppm) was 100% each time. In addition, the “Curative effect Cucumber” value in test [3] (200 ppm) is 100%.
With `CCOC(C#N)NC(=O)c1sc(C)nc1C(C)C` (centres unmarked) [Compound 14, 2-ethoxy-2-(4-isopropyl-2-methylthiazole-5-carboxamino)acetonitrile], the “Curative effect Tomato” value in test [1] (100 ppm) and in test [1] (200 ppm) was 100% each time. Besides, the “Curative effect Grape” value in test [2] (100 ppm) is recorded as 90%; in test [2] (200 ppm) it was 100%. The “Curative effect Cucumber” value in test [3] (100 ppm) and in test [3] (200 ppm) was 100% in each case.
For `CCc1nc(C)sc1C(=O)NC(C#N)OCCC#N` (centres unmarked) [Compound 11, 2-(2-cyanoethoxy)-2-(4-ethyl-2-methylthiazole-5-carboxamino)acetonitrile], the “Curative effect Tomato” value in test [1] (100 ppm) and in test [1] (200 ppm) was 100% throughout. In addition, the “Curative effect Grape” value in test [2] (100 ppm) and in test [2] (200 ppm) was 100% in each case. Also, the “Curative effect Cucumber” value in test [3] (100 ppm) is 90%; in test [3] (200 ppm), 100%.
As to `CCSC(C#N)NC(=O)c1sc(C)nc1CC` (centres unmarked) [Compound 12, 2-ethylthio-2-(4-ethyl-2-methylthiazole-5-carboxamino)acetonitrile], the “Curative effect Tomato” value is given as 95% in test [1] (100 ppm) and 100% in test [1] (200 ppm). Further, the “Curative effect Grape” value stood at 90% in test [2] (100 ppm) and 100% in test [2] (200 ppm). For the same compound, the “Curative effect Cucumber” value in test [3] (100 ppm) was 90%; in test [3] (200 ppm), 100%.
